Experimental data published in patent publication US6844353B2, “Fungicidal properties of sampangine and its analogs to agriculturally important fungal plant pathogens” (The United States of America as represented by the …, priority 2003, dated 2005).
Read-outs that look alike come from different tables or passages of the source.

How the values were obtained:
[1] = system: C. fragariae isolate CF-75; test: Detached strawberry leaf assay; assay type: in vivo, Colletotrichum fragariae; conditions: detached strawberry leaves (cultivar Chandler), five days after application
Description: Strawberry plants of the cultivar Chandler were maintained in a warm greenhouse under conditions suitable for optimum vegetative growth. The youngest fully expanded leaf with the entire petiole from each plant was collected. The petiole of each leaf was inserted into a small test tube (10×4 mm) and filled with sterile distilled water. The left leaflet of each leaf was inoculated with C. fragariae isolate CF-75 (1.5×10^6 conidia/ml) using a hand pump sprayer. The inoculated leaves were placed in a dew chamber and incubated overnight at 30° C. and 100% relative humidity, removed from the dew chamber and allowed to dry. The test compound was applied using a chromatography sprayer until the upper surface of each leaflet was coated. After allowing the leaves to air dry for 2 hours, the right leaflet of each leaf was inoculated with C. fragariae isolate CF-75. The leaves were incubated in the dew chamber at 30° C. and 100% relative humidity for 48 hours. The leaves were then removed from the dew chamber and held in a moist chamber for 3 days (total of five days since test compounds were applied). The number of lesions on each leaflet were then counted.

C. gloeosporioides = test: 96-well microtiter plate assay, fungal growth inhibition; assay type: cell-based, Colletotrichum gloeosporioides; conditions: Colletotrichum gloeosporioides, read-out: Percent inhibition−Percent Stimulation±SEM
Description: (§1) Pathogen production. Isolates of Colletotrichum acutatum Simmonds, Colletotrichum fragariae Brooks, and Colletotrichum gloeosporioides (Penz.) Penz. & Sacc. in Penz. were obtained from B. J. Smith, USDA, ARS, Small Fruit Research Station, Poplarville, Miss. Colletotrichum fragariae (isolate CF63), C. acutatum (isolate CAGoff), and C. gloeosporioides (isolate CG162) were used for all pathogen and bioautography studies. Isolate CF63 is one of the most virulent isolates at infecting strawberry plants and inducing both crown and fruit rot (Smith and Black, 1990). CF63, CAGoff, and CG162 were used as standard test isolates because of our extensive knowledge of these isolates and their known fungicide sensitivity profiles in both bioautography and microtiter formats. The three Colletotrichum species were isolated from strawberry (Fragaria x ananassa Duchesne). Botrytis cinerea Pers.: Fr, was isolated from commercial grape (Vitis vinifera L.) and Fusarium oxysporum Schlechtend: Fr from orchid (Cynoches sp.). Phomopsis viticola (Sacc.) and P. obscurans (Ellis & Everh.) Sutton were from Mike A. Ellis, Ohio State University, Wooster, Ohio. Fungi were grown on potato-dextrose agar (PDA, Difco, Detroit, Mich.) in 9 cm petri dishes and incubated in a growth chamber at 24±2° C. and under cool-white fluorescent lights ([…]·m^−2·sec^−1 light) with 12 hour photoperiod.
(§2) Inoculum preparation. Conidia were harvested from 7-10 day-old cultures by flooding plates with 5 mL of sterile distilled water and dislodging conidia by softly brushing the colonies with an L-shaped glass rod. Conidial suspensions were filtered through sterile miracloth (Calbiochem-Novabiochem Corp., La Jolla, Calif.) to remove mycelia. Conidia concentrations were determined photometrically, from a standard curve based on the percent of transmittance (% T) at 625 nm and suspensions were then adjusted with sterile distilled water to a concentration of 1.0×10^6 conidia/mL.
(§3) Microtiter assay. A standardized 96-well microtiter plate assay developed for discovery of natural product fungicidal agents was used to evaluate naturally occurring antifungal agents from Macaranga monanara. A 96-well microtiter assay was used to determine sensitivity of B. cinerea, C. acutatum, C. fragariae, C. gloeosporioides, F. oxysporum, Phomopsis viticola, and P. obscurans to the various antifungal agents in comparison with known fungicidal standards. Vinclozolin, captan, and thiabendazole, which represent three different modes of action, were used as standards in this experiment. Each fungus was challenged in a dose-response format using test compounds where the final treatment concentrations were 0.3, 3.0 and 30.0 μM. Microtiter plates (Nunc MicroWell, untreated; Roskilde, Denmark) were covered with a plastic lid and incubated in a growth chamber as described previously for fungal growth. Growth was then evaluated by measuring absorbance of each well at 620 nm using a microplate photometer (Packard Spectra Count, Packard Instrument Co., Downers Grove, Ill.). Microtiter plates (Nunc MicroWell, untreated; Roskilde, Denmark) were covered with a plastic lid and incubated in a growth chamber at 24±1° C. and 12 hour photoperiod under 60±5 μmol light. Growth was then evaluated by measuring absorbance of each well at 620 nm using a microplate photometer (Packard Spectra Count, Packard Instrument Co., Downers Grove, Ill.).
(§4) Microbioassy Experimental Design. Chemical sensitivity each of B. cinerea, C. acutatum, C. fragariae, C. gloeosporiodes, F. oxysporum, Phomopsis viticola, and P. obscurans was evaluated using 96-well plate microbioassay format. Each chemical was evaluated in duplicate at each dose (0.3, 3.0 and 30.0 μM). […]

F. oxysporum = test: as above; assay type: cell-based, Fusarium oxysporum; conditions: Fusarium oxysporum, read-out: Percent inhibition−Percent Stimulation±SEM
Description: as §1, §2, §3, §4

C. acutatum = test: as above; assay type: cell-based, Colletotrichum acutatum; conditions: Colletotrichum acutatum, read-out: Percent inhibition−Percent Stimulation±SEM
Description: as §1, §2, §3, §4

B. cinerea = test: as above; assay type: cell-based, Botrytis cinerea; conditions: Botrytis cinerea, read-out: Percent inhibition−Percent Stimulation±SEM
Description: as §1, §2, §3, §4

C. fragariae = test: as above; assay type: cell-based, Colletotrichum fragariae; conditions: Colletotrichum fragariae, read-out: Percent inhibition−Percent Stimulation±SEM
Description: as §1, §2, §3, §4

For CO/C=C(/C(=O)OC)c1ccccc1Oc1cc(Oc2ccccc2C#N)ncn1 [Azoxystrobin], the “Disease severity scores (# disease lesions)” value (shortened to “Disease severity scores”) ([1]; Concentration 625 (unit not given)) was 4.46, the “Disease severity scores” value ([1]; Concentration 1250 (unit not given)) was 1.58 and the “Disease severity scores” value ([1]; Concentration 2500 (unit not given)) was 3.54.
Cc1cc(C2CC2)nc(Nc2ccccc2)n1 [Cyprodinil] was tested, and the inhibition at 0.3 µM (C. gloeosporioides; 48 h) was 84.3 ± 2.3%, the inhibition at 3 µM (C. gloeosporioides; 48 h) was 91.3 ± 1.3% and the inhibition at 30 µM (C. gloeosporioides; 48 h) was 91.1 ± 7%. The inhibition at 0.3 µM (C. gloeosporioides; 72 h) was 55.7 ± 4.6%, the inhibition at 3 µM (C. gloeosporioides; 72 h) was 83.7 ± 1.8% and the inhibition at 30 µM (C. gloeosporioides; 72 h) was 93 ± 0.4%. For the same molecule, the inhibition at 0.3 µM (F. oxysporum; 48 h) was -5.4 ± 4.8%, the inhibition at 3 µM (F. oxysporum; 48 h) was 16.9 ± 5.5% and the inhibition at 30 µM (F. oxysporum; 48 h) was 69.1 ± 4.6%. For the same molecule, the inhibition at 0.3 µM (F. oxysporum; 72 h) was -5.1 ± 2.8%, the inhibition at 3 µM (F. oxysporum; 72 h) was 6.2 ± 2.5% and the inhibition at 30 µM (F. oxysporum; 72 h) was 31.3 ± 4.9%. For the same molecule, the inhibition at 0.3 µM (C. acutatum; 48 h) was 99.8 ± 0.2%, the inhibition at 3 µM (C. acutatum; 48 h) was 98.6 ± 0.6% and the inhibition at 30 µM (C. acutatum; 48 h) was 98.7 ± 0.5%. It also gave an inhibition at 0.3 µM (C. acutatum; 72 h) of 85.1 ± 4.3%, an inhibition at 3 µM (C. acutatum; 72 h) of 99.3 ± 2.2% and an inhibition at 30 µM (C. acutatum; 72 h) of 97.9 ± 0.3%. The inhibition at 0.3 µM (B. cinerea; 48 h) was 75.3 ± 21%, the inhibition at 3 µM (B. cinerea; 48 h) was 29.4 ± 31.3% and the inhibition at 30 µM (B. cinerea; 48 h) was 2.5 ± 31.6%. The inhibition at 0.3 µM (B. cinerea; 72 h) was 61.3 ± 24.4%, the inhibition at 3 µM (B. cinerea; 72 h) was 51.3 ± 30% and the inhibition at 30 µM (B. cinerea; 72 h) was 27.3 ± 28.2%. It also gave an inhibition at 0.3 µM (C. fragariae; 48 h) of 98 ± 1.6%, an inhibition at 3 µM (C. fragariae; 48 h) of 91.3 ± 1.3% and an inhibition at 30 µM (C. fragariae; 48 h) of 91.1 ± 7%. It also gave an inhibition at 0.3 µM (C. fragariae; 72 h) of 82.6 ± 6.2%, an inhibition at 3 µM (C. fragariae; 72 h) of 83.7 ± 1.8% and an inhibition at 30 µM (C. fragariae; 72 h) of 93 ± 0.4%.
